How the values were obtained:
IL-16 and RANTES = assay: Expression of IL-16 and RANTES (FIG. 4); assay type: cell-based
Source text: Referring to FIG. 5, these findings on the role of IL-16 and RANTES in the fibroblast/lymphocyte inflammation cascade provide options for therapies for TAO, RA and other antibody-mediated inflammatory auto-immune disorders. The method of the therapeutic aspect of the invention involves inhibiting the activity of the two chemoattractant molecules that are substantial contributors to the inflammation cascade, IL-16 and RANTES. IL-16 inhibitors include, but are not limited to, rapamycin, wortmannin, caspase-3 inhibitor, and anti-IL-16 antibody. RANTES inhibitors include, but are not limited to, SB203580, and anti-RANTES antibody. […] These compounds either block translation of the chemoattractant molecules, prevent release of chemoattractant molecules from the cell after they are translated, or neutralize the chemoattractant molecules' ability to cause lymphocytic chemotaxis after they are released.

TAO fibroblasts = assay: PGE2 synthesis in TAO fibroblasts; assay type: cell-based, human; details: FIG. 7A
Protocol: FIGS. 7A and 7B show the up-regulation of PGE2 synthesis and blockage with SC58125 (a PGHS-2 inhibitor) and dexamethasone (7A) and PGHS-2 expression (7B) in TAO fibroblasts.
Referring to FIGS. 7A and 7B, CD40 ligation in orbital fibroblasts results in the induction of PGHS-2 and leads to the over-production of PGE2. […] CD40 ligation in these cultures results in the intermediate activation of IL-1α gene expression. This induction occurs after 6 h of treatment and is mediated at the pre-translational level. IL-1β is undetectable in orbital fibroblasts and is not induced by CD154. Interrupting the expression, receptor binding or activity of IL-1α attenuates the induction of PGHS-2 provoked by CD40 ligation. It is notable that CD40 is over-expressed by thyroid epithelium in Graves' disease and provokes constitutive PGHS-2 expression. Moreover, functional CD40 is expressed by human thyroid fibroblasts.

orbital fibroblasts [1] = assay: Differentiation of orbital fibroblasts into adipocytes; assay type: cell-based, human; details: parent strain, transient exposure; flow analysis
Source text: FIGS. 13A-13D show induction of differentiation of Thy-1^− orbital fibroblasts into adipocytes by the […] ligand rosiglitazone. A control phase contrast of parental strain (B) flow cytometric analysis of parental strain showing absence of adipocytes (C) phase contrast post-differentiation showing adipocyte clusters (D) flow analysis showing 44% adipocyte differentiated.
An under-appreciated feature of the tissue remodeling associated with TAO is the expansion of the fat deposit. In fact, a number of surgical therapeutic strategies are aimed directly at reducing the mass of fat in TAO. These have been variably successful in reducing the mechanical embarrassment imposed by excessive fat volumes in TAO. […] While only a small fraction of orbital fibroblasts undergo differentiation into mature adipocytes, the fraction is invariant with regard to whether the fibroblasts were from a patient with TAO or from normal orbital tissues. While this discovery was of substantial interest to us, we realized that the differentiation of such a small fraction of cells might preclude determining the phenotypic changes accompanying them. However, referring to FIGS. 12A-12D, transient exposure to the PPARγ ligand (rosiglitazone) 45 to 65% of the cells in a parent strain matured to adipocytes showing that orbital fibroblasts express abundant PPARγ. […]

IL-16 = IL-16 ELISA of medium from treated fibroblasts, GD donors; assay type: cell-based, human; details: TAO orbital fibroblasts; IGF-1 10 nM, TSH high concentrations
Source text: (§1) In addition to its therapeutic aspects, the present invention also relates to a diagnostic method for detecting the presence of antibody-activated fibroblasts in the patient. Applicants believe that several auto immune diseases or disorders are associated with antibody-activated fibroblasts. […] Altered levels of these chemoattractants can be detected in various biological samples in mammals, preferably humans. Levels of IL-16 and/or RANTES may be monitored in a patient, using standard techniques, as an indication of the deleterious aspects of the disease condition. Biological samples, including but not limited to serum, vitreous humor, aqueous humor, synovial fluid, and tissue, will be drawn from the patient using standard techniques. Particularly preferred are serum samples. The measurement of the IL-16 and RANTES levels may be monitored using any method possible to detect the levels of these proteins in biological samples. A preferred method of analysis is by ELISA as described in Sciaky, D. et al., J. Immunol. 164(7):3806-14, 2000. An ELISA specific for IL-16 can be used to assess the levels released by fibroblasts as described previously in Lim, K. G. et al., J. Immunol. 156(7): 2566-70, 1996. An ELISA specific for RANTES can be used according to the manufacturer's specification (BioSource Intl., Camarillo, Calif.).
(§2) The levels of IL-16 and RANTES were then assessed with specific ELISAs. The ELISA assay for IL-16 is performed essentially as discussed in Sciaky D., Brazer, W., Center, D. M., Cruikshank, W. W. and Smith, T. J.: Cultured human fibroblasts express constitutive IL-16 mRNA: Cytokine induction of active IL-16 protein synthesis through a caspase-3-dependent mechanism. J. Immunol. 164(7):3806-14, 2000). An ELISA (BioSource) for RANTES was performed according to the manufacturer's instructions.

RANTES = RANTES ELISA of medium from treated fibroblasts, GD donors; assay type: cell-based, human; details: TAO orbital fibroblasts; IGF-1 10 nM, TSH high concentrations
Source text: as §1, §2

orbital fibroblasts [2] = assay: IL-6 and IL-8 synthesis in orbital fibroblasts on CD40 ligation; assay type: cell-based, human; details: orbital fibroblasts treated with rCD154
Source text: These include IL-6 and IL-8, two important molecules critical to the activation and trafficking of bone marrow derived cells to sites of inflammation and which have been implicated in Graves' disease. […] Nuclear translocation of NF-κB is provoked by CD40 ligation and inhibiting the activation of this transcriptional factor by stabilizing the NF-κB/IκB complex can block the induction of both IL-6 and IL-8.

Which “effect on IL-16 and RANTES expression” value (IL-16 and RANTES) does the source give for COc1cccc(-c2cc(=O)c3ccccc3o2)c1N [PD098059] here?
The value was “inhibition of expression”.

For C[S+]([O-])c1ccc(-c2nc(-c3ccncc3)c(-c3ccc(F)cc3)[nH]2)cc1 (stereo not shown) [SB203580], which “effect on IL-16 and RANTES expression” value (IL-16 and RANTES) is on record?
Its value is “inhibition of expression”.

For CS(=O)(=O)c1ccc(-n2nc(C(F)(F)F)cc2-c2ccc(F)cc2)cc1 [SC58125], which “effect on up-regulation of PGE2 synthesis” value (TAO fibroblasts) is on record?
The value was “blockage”.

With CN(CCOc1ccc(CC2SC(=O)NC2=O)cc1)c1ccccn1 (stereo not shown) [rosiglitazone] as the molecule, how does the “cells matured (differentiated) to adipocytes” value (orbital fibroblasts [1]) read?
The value was 44%.

Which results are given for “IGF-1: authentic IGF-1, ligand of the IGF-1 receptor”?
induction of IL-16 expression by the substance itself (IL-16): mimicked; induction of RANTES expression by the substance itself (RANTES): mimicked

B1: rCD154: recombinant CD40 ligand, member of the TNF-α superfamily (protein, UniProt P29965 113-261, looked up)
CD40 ligand, soluble form: MQKGDQNPQIAAHVISEASSKTTSVLQWAEKGYYTMSNNLVTLENGKQLTVKRQGLYYIYAQVTFCSNREASSQAPFIASLCLKSPGRFERILLRAANTHSSAKPCGQQSIHLGGVFELQPGASVFVNVTDPSQVSHGTGFTSFGLLKL
Which “synthesis of both IL-6 and IL-8” value (orbital fibroblasts [2]) does the source give for B1 here?
Its value is “dramatically increased”.
